Measurements: ChEMBL document CHEMBL4673337, “Phenolic Constituents of the Roots of Rhamnoneuron balansae with Senolytic Activity” (J Nat Prod, 2020)
Calls of active or inactive are those of the source. The calls are words filed in the database; no cut-off is given here.

Legend:
NHDF [1] = test: Cytotoxicity against human dermal fibroblast assessed as reduction in cell viability at 20 uM after 3 days by MTT assay; format: cell-based; conditions: 72 h, time 3 day
NHDF [2] = test: Senolytic activity in 35 passages senescent human dermal fibroblast cells assessed as reduction cell viability at 20 uM after 3 days by MTT assay relative to control; format: functional
[3] = target: T1, Cyclin-dependent kinase inhibitor 2A (Homo sapiens) (UniProt P42771); test: Inhibition of GFP-tagged p16INK4A (unknown orgin) expressed in human dermal fibroblast at 20 uM after 24 hrs by renilla/firefly dual-luciferase reporter assay relative to control; format: cell-based; conditions: NHDF
T1 sequence (whole entry): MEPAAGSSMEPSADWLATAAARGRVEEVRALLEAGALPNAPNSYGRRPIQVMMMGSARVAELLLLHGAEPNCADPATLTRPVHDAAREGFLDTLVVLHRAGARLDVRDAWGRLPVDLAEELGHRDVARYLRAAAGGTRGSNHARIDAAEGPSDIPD

| SMILES | Activity (NHDF [1]) | other results |
| --- | --- | --- |
| COc1cc(CCc2oc3ccccc3c(=O)c2O)ccc1O | Non-Toxic |  |
| O=C1c2c(cc(O)c3c2O[C@H](c2ccc(O)cc2)[C@H]3c2cc(O)cc(O)c2)O[C@@H](c2ccc(O)c(O)c2)[C@@H]1O | Non-Toxic |  |
| COc1cc(CCc2oc3ccccc3c(=O)c2OC)ccc1O | Non-Toxic |  |
| O=C1C[C@@H](CCc2ccc(O)cc2)Oc2ccccc21 | Non-Toxic | Activity (NHDF [2]; time 3.0 day): Active |
| O=C1c2c(cc(O)c3c(-c4cc(O)cc(O)c4)c(-c4ccc(O)cc4)oc23)O[C@@H](c2ccc(O)cc2)[C@@H]1O | Non-Toxic | Activity (NHDF [2]; time 3 day): 34%; inhibition [3]: 32% |
| O=C1c2c(cc(O)c3c2O[C@H](c2ccc(O[C@@H]4O[C@H](CO)[C@@H](O)[C@H](O)[C@H]4O)cc2)[C@H]3c2cc(O)cc(O)c2)O[C@@H](c2ccc(O)c(O)c2)[C@@H]1O | Non-Toxic |  |
| COc1c(CCc2cccc(O)c2)oc2ccccc2c1=O | Non-Toxic |  |
| O=C1c2c(cc(O)c3c2O[C@H](c2ccc(O)cc2)[C@H]3c2cc(O)cc(O)c2)O[C@@H](c2ccc(O)cc2)[C@@H]1O | Non-Toxic |  |
| O=C1c2c(cc(O[C@@H]3O[C@H](CO)[C@@H](O)[C@H](O)[C@H]3O)c3c2O[C@H](c2ccc(O)cc2)[C@H]3c2cc(O)cc(O)c2)O[C@@H](c2ccc(O)c(O)c2)[C@@H]1O | Non-Toxic |  |
| O=C1c2c(cc(O[C@@H]3O[C@H](CO)[C@@H](O)[C@H](O)[C@H]3O)c3c2O[C@H](c2ccc(O)cc2)[C@H]3c2cc(O)cc(O)c2)O[C@H](c2ccc(O)c(O)c2)[C@H]1O | Non-Toxic |  |
| COc1cc(CC[C@@H]2CC(=O)c3ccccc3O2)ccc1O | Non-Toxic | Activity (NHDF [2]; time 3.0 day): Active |
| O=C1C[C@@H](CCc2cccc(O)c2)Oc2ccccc21 | Non-Toxic |  |
